Source: US12303474B2, “S-enantiomerically enriched compositions of beta blockers for treating amyotrophic lateral sclerosis” (priority 2013, dated 2025)
Like-named read-outs stand apart in the source and are kept apart here.

Key:
[1] = system: G93A SOD1 B6SJL hybrid (G93A) model; test: Body weight and body composition (lean mass, fat mass; NMR scans) in G93A SOD1 transgenic mice; assay type: in vivo; conditions: for Average Δ body weight / Average Δ fat mass / Average Δ lean mass: per day alive after disease onset
Description: (§1) Transgenic mice over-expressing a high copy number (25 copies) of mutated human SOD1 gene with a G93A point mutation, i.e., B6SJL-TgN [SOD1-G93A]1 Gur (G1H-G93A transgenic mice, JR2726; Hemizygote) (Gurney M E, et al., Science, 264, 1772-1775, 1994) (“G93A SOD1 B6SJL hybrid (G93A) model”), were used.
[…] […] There were 16 mice in the S-oxprenolol group.
The primary endpoint was survival, humanely defined as the ability of the animal to right itself in 30 seconds after being laid on its side. Secondary endpoints were body weight, body composition, spontaneous activity and food intake. Body weight of the animals was assessed weekly until onset of disease. Additionally, body composition (fat mass and lean body mass) was assessed using NMR scans (EchoMRI-100, Echo Medical Systems, Houston, USA) every 4 days. After onset of disease, body weight and body composition were assessed every two days until the end of the study. All personal handling the animals was strictly blinded to the randomized treatment allocation.
To study the effect of S-oxprenolol on body weight, body weight was monitored over time.
To study the effect of the test compounds on lean body mass, lean mass was determined at the end of the study.
To study the effect of the test compounds on fat mass, the fat mass were determined at the end of the study.
To study the effect of S-oxprenolol on body weight, body weight was monitored over time. […] The number of all mice in the population is indicated as “n” in at the bottom of FIGS. 20A-20C.
To study the effect of the test compounds on lean body mass, lean mass was determined at the end of the study. […] The number of all mice in the population is indicated as “n” in at the bottom of FIGS. 20D-20F.
To study the effect of the test compounds on fat mass, the fat mass were determined at the end of the study. […] The number of all mice in the population is indicated as “n” in at the bottom of FIGS. 20G-20I.

[2] = system: G93A SOD1 B6SJL hybrid (G93A) model; conditions: for Heart / gastrocnemius: end of study;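 on HR survival (FIG. 14): dosing began after ALS onset in G93A SOD1 mice, with survival as the endpoint, defined humanely as the animal failing to regain upright posture within 30 s when placed sideways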;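 on HR survival (FIG. 16): dosing began after ALS onset in G93A SOD1 mice, with survival as the endpoint, defined humanely as the animal failing to regain upright posture within 30 s when placed sideways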
Method: as §1
To study the effect of the test compounds on skeletal muscle atrophy, the skeletal muscle mass were determined at the end of the study.
The number of all mice in the population is indicated as “n” in at the bottom of FIGS. 21A-21C.
The number of all mice in the population is indicated as “n” in at the bottom of FIGS. 20D-20F.
The number of all mice in the population is indicated as “n” in at the bottom of FIGS. 21G-21I.

[3] = system: G93A SOD1 B6SJL hybrid (G93A) model; conditions: for HR survival (FIG. 14): all mice; for HR survival (FIG. 16): female mice; for HR survival (FIG. 15): male mice;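 on HR survival (FIG. 14): dosing began after ALS onset in G93A SOD1 mice, with survival as the endpoint, defined humanely as the animal failing to regain upright posture within 30 s when placed sideways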;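 on HR survival (FIG. 16): dosing began after ALS onset in G93A SOD1 mice, with survival as the endpoint, defined humanely as the animal failing to regain upright posture within 30 s when placed sideways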
[4] = system: G93A SOD1 B6SJL hybrid (G93A) model; test: Disease progression score (JAX SOP) in G93A SOD1 transgenic mice
Description: The disease progression score is based on the JAX SOP (Ludolph A C, Bendotti C, Blaugrund E, Hengerer B, Loffler J P, Martin J, Meininger V, Meyer T, Moussaoui S, Robberecht W, Scott S, Silani V, Van Den Berg L H (ENMC Group For The Establishment Of Guidelines For The Conduct Of Preclinical And Proof Of Concept Studies In ALS/MND Models). 2007, which is incorporated by reference).

[5] = 20 mg/kg/day vs. S-Oxprenolol (20)

Structure (SMILES): C=CCOc1ccccc1OC[C@H](O)CNC(C)C [R-oxprenolol, (R)-1-(2-(allyloxy)phenoxy)-3-(isopropylamino)propan-2-ol]
- Δ body weight ([1]; all mice, 10 mg/kg/d): -6.36 ± 0.39 g
- Δ fat mass ([1]; all mice, 10 mg/kg/d): -1.71 ± 0.15 g
- Δ lean mass ([1]; all mice, 10 mg/kg/d): -5.11 ± 0.32 g
- Average Δ body weight ([1]; all mice, 10 mg/kg/d): -146.1 ± 11.1 mg/day
- Average Δ fat mass ([1]; all mice, 10 mg/kg/d): -38.3 ± 4.2 mg/day
- Average Δ lean mass ([1]; all mice, 10 mg/kg/d): -125.8 ± -12.7 mg/day
- Δ body weight ([1]; all mice, 20 mg/kg/d): -5.21 ± 0.39 g
- Δ fat mass ([1]; all mice, 20 mg/kg/d): -1.59 ± 0.15 g
- Δ lean mass ([1]; all mice, 20 mg/kg/d): -4.60 ± 0.28 g
- Average Δ body weight ([1]; all mice, 20 mg/kg/d): -111.0 ± 9.4 mg/day
- Average Δ fat mass ([1]; all mice, 20 mg/kg/d): -32.6 ± 3.0 mg/day
- Average Δ lean mass ([1]; all mice, 20 mg/kg/d): -96.6 ± 6.4 mg/day
- Δ body weight ([1]; female mice, 10 mg/kg/d): -6.19 ± 0.42 g
- Δ fat mass ([1]; female mice, 10 mg/kg/d): -1.87 ± 0.22 g
- Δ lean mass ([1]; female mice, 10 mg/kg/d): -3.76 ± 0.41 g
- Average Δ body weight ([1]; female mice, 10 mg/kg/d): -137.4 ± 15.5 mg/day
- Average Δ fat mass ([1]; female mice, 10 mg/kg/d): -41.4 ± 5.3 mg/day
- Average Δ lean mass ([1]; female mice, 10 mg/kg/d): -121.3 ± 25.7 mg/day
- Δ body weight ([1]; female mice, 20 mg/kg/d): -4.85 ± 0.55 g
- Δ fat mass ([1]; female mice, 20 mg/kg/d): -1.71 ± 0.26 g
- Δ lean mass ([1]; female mice, 20 mg/kg/d): -4.55 ± 0.37 g
- Average Δ body weight ([1]; female mice, 20 mg/kg/d): -105.2 ± 13.1 mg/day
- Average Δ fat mass ([1]; female mice, 20 mg/kg/d): -35.6 ± 5.0 mg/day
- Average Δ lean mass ([1]; female mice, 20 mg/kg/d): -85.2 ± 9.1 mg/day
- Δ body weight ([1]; male mice, 10 mg/kg/d): -6.515 ± 0.65 g
- Δ fat mass ([1]; male mice, 10 mg/kg/d): -1.57 ± 0.21 g
- Δ lean mass ([1]; male mice, 10 mg/kg/d): -5.55 ± 0.47 g
- Average Δ body weight ([1]; male mice, 10 mg/kg/d): -153.5 ± 16.1 mg/day
- Average Δ fat mass ([1]; male mice, 10 mg/kg/d): -37.4 ± 6.4 mg/day
- Average Δ lean mass ([1]; male mice, 10 mg/kg/d): -129.7 ± 9.9 mg/day
- Δ body weight ([1]; male mice, 20 mg/kg/d): -5.53 ± 0.57 g
- Δ fat mass ([1]; male mice, 20 mg/kg/d): -1.48 ± 0.16 g
- Δ lean mass ([1]; male mice, 20 mg/kg/d): -5.12 ± 0.38 g
- Average Δ body weight ([1]; male mice, 20 mg/kg/d): -116.0 ± 13.7 mg/day
- Average Δ fat mass ([1]; male mice, 20 mg/kg/d): -29.9 ± 3.5 mg/day
- Average Δ lean mass ([1]; male mice, 20 mg/kg/d): -106.4 ± 8.5 mg/day
- BAT (brown adipose tissue) ([2]; all mice, 10 mg/kg/d): 44.5 ± 3.4 mg
- EDL (extensor digitorum longus) ([2]; all mice, 10 mg/kg/d): 6.53 ± 0.47 mg
- soleus ([2]; all mice, 10 mg/kg/d): 4.49 ± 0.36 mg
- Heart ([2]; all mice, 10 mg/kg/d): 101.2 ± 2.7 mg
- gastrocnemius ([2]; all mice, 10 mg/kg/d): 50.8 ± 3.3 mg
- BAT (brown adipose tissue) ([2]; all mice, 20 mg/kg/d): 43.3 ± 4.1 mg
- EDL (extensor digitorum longus) ([2]; all mice, 20 mg/kg/d): 5.89 ± 0.31 mg
- soleus ([2]; all mice, 20 mg/kg/d): 5.49 ± 0.34 mg
- Heart ([2]; all mice, 20 mg/kg/d): 100.7 ± 3.8 mg
- gastrocnemius ([2]; all mice, 20 mg/kg/d): 47.0 ± 2.6 mg
- BAT (brown adipose tissue) ([2]; female mice, 10 mg/kg/d): 42.1 ± 4.6 mg
- EDL (extensor digitorum longus) ([2]; female mice, 10 mg/kg/d): 6.45 ± 0.75 mg
- soleus ([2]; female mice, 10 mg/kg/d): 4.23 ± 0.51 mg
- Heart ([2]; female mice, 10 mg/kg/d): 94.4 ± 3.4 mg
- gastrocnemius ([2]; female mice, 10 mg/kg/d): 47.5 ± 4.1 mg
- BAT (brown adipose tissue) ([2]; female mice, 20 mg/kg/d): 32.6 ± 1.9 mg
- EDL (extensor digitorum longus) ([2]; female mice, 20 mg/kg/d): 5.98 ± 0.47 mg
- soleus ([2]; female mice, 20 mg/kg/d): 5.09 ± 0.52 mg
- Heart ([2]; female mice, 20 mg/kg/d): 88.5 ± 4.6 mg
- gastrocnemius ([2]; female mice, 20 mg/kg/d): 43.6 ± 4.2 mg
- BAT (brown adipose tissue) ([2]; male mice, 10 mg/kg/d): 46.7 ± 4.9 mg
- EDL (extensor digitorum longus) ([2]; male mice, 10 mg/kg/d): 6.59 ± 0.61 mg
- soleus ([2]; male mice, 10 mg/kg/d): 4.74 ± 0.51 mg
- Heart ([2]; male mice, 10 mg/kg/d): 107.4 ± 3.4 mg
- gastrocnemius ([2]; male mice, 10 mg/kg/d): 53.8 ± 5.1 mg
- BAT (brown adipose tissue) ([2]; male mice, 20 mg/kg/d): 53.9 ± 6.8 mg
- EDL (extensor digitorum longus) ([2]; male mice, 20 mg/kg/d): 5.81 ± 0.42 mg
- soleus ([2]; male mice, 20 mg/kg/d): 5.84 ± 0.45 mg
- Heart ([2]; male mice, 20 mg/kg/d): 112.0 ± 4.1 mg
- gastrocnemius ([2]; male mice, 20 mg/kg/d): 49.9 ± 3.0 mg
- HR survival (FIG. 14) ([3]; 10 mg/kg/day vs. placebo): 0.57
- HR survival (FIG. 14) [3, 5]: 1.32
- HR survival (FIG. 14) ([3]; 20 mg/kg/day vs. placebo): 0.54
- HR survival (FIG. 16) ([3]; 10 mg/kg/day vs. placebo): 0.60
- HR survival (FIG. 16) [3, 5]: 1.26
- HR survival (FIG. 16) ([3]; 20 mg/kg/day vs. placebo): 0.41
- HR survival (FIG. 15) ([3]; 10 mg/kg/day vs. placebo): 0.49
- HR survival (FIG. 15) [3, 5]: 1.24
- HR survival (FIG. 15) ([3]; 20 mg/kg/day vs. placebo): 0.41
- HR Progression from score 1 to score 2 (FIG. 17) ([4]; 10 mg/kg/day vs. placebo): 0.47
- HR Progression from score 1 to score 3 (FIG. 19) ([4]; 10 mg/kg/day vs. placebo): 0.60
- HR Progression from score 2 to score 3 (FIG. 18) ([4]; 10 mg/kg/day vs. placebo): 1.04
- HR Progression from score 1 to score 2 (FIG. 17) ([4]; 20 mg/kg/day vs. placebo): 0.54
- HR Progression from score 1 to score 3 (FIG. 19) ([4]; 20 mg/kg/day vs. placebo): 0.63
- HR Progression from score 2 to score 3 (FIG. 18) ([4]; 20 mg/kg/day vs. placebo): 0.74

Structure (SMILES): CC(C)NCC(O)COc1cccc2[nH]ccc12 (stereo not shown) [S-pindolol]
- Median survival after onset of ALS symptoms ([3]; 3 mg/kg/day, placebo 28 days): 31 days
